Experimental data: publication PMC12218520, “Oxyresveratrol suppressed melanogenesis, dendrite formation, and melanosome transport in melanocytes via regulation of the MC1R/cAMP/MITF pathway” (Scientific Reports, 2025)
Where two headings read alike, the source gives them in different places.

Experiments:
human tyrosinase [1] = target: T1, human tyrosinase (Homo sapiens, UniProt P14679); assay: substrate of the tyrosinase assay ([…]), absorbance at […] nm; format: biochemical
T1 construct: gene TYR; recombinant human tyrosinase (OriGene TP321797L)
T1 sequence (P14679 19-529): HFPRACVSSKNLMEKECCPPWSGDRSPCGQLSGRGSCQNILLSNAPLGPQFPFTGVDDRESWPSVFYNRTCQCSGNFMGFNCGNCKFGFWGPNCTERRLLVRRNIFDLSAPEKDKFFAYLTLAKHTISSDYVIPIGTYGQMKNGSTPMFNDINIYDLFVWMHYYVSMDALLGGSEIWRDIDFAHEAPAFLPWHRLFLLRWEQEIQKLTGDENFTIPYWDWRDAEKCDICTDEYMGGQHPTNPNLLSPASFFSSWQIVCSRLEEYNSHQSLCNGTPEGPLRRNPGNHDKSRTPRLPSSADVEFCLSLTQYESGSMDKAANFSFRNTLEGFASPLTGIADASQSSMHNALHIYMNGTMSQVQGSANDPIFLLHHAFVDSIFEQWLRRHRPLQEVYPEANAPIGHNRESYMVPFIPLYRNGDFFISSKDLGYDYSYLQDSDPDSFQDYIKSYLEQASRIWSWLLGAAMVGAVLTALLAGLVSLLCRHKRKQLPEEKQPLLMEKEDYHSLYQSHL

human tyrosinase [2] = target: T1, human tyrosinase; assay: L-DOPA oxidation assay with recombinant human tyrosinase, absorbance at […] nm; format: biochemical

**Q.** For `N[C@@H](Cc1ccc(O)c(O)c1)C(=O)O` [L-DOPA], which “substrate of the tyrosinase assay (0.5 mM), absorbance at 492 nm” value (human tyrosinase [1]) is on record?
**A.** Its value is “Inhibition of human tyrosinase activity by oxyresveratrol, resveratrol, phenylethyl resorcinol, and glabridin in vitro, using L-DOPA as substrate”.

**Q.** For `Oc1ccc(/C=C/c2cc(O)cc(O)c2)cc1` [compound 2, Resveratrol], which IC50 (human tyrosinase [2]) is on record?
**A.** Its IC50 is 57.2 µM.

**Q.** Which IC50 (human tyrosinase [2]; read-out: IC50 (μg/mL) (converted)) does the source give for `CC(c1ccccc1)c1ccc(O)cc1O` (stereo not drawn) [compound 3, Phenylethyl resorcinol] here?
**A.** Its IC50 is 88.5 µM.
